Laboratory results as given in ChEMBL document CHEMBL6087386, “Radioprotective effectiveness of a novel delta-tocotrienol prodrug on mouse hematopoietic system against 60Co gamma-ray irradiation through inducing granulocyte-colony stimulating factor production” (Eur J Med Chem, 2024).
Active and inactive are the calls of the source. No cut-off for these calls is given here.

Assays:
[1] = tested on: Mus musculus; assay: Induction of G-CSF production in C57BL/6J mouse model at 100 mg/kg, sc measured for 24 hrs by ELISA analysis; type: functional, organism-based
[2] = Stability in C57BL/6J mouse whole blood assessed as half-life; type: ADME, tissue-based
[3] = tested on: Mus musculus; assay: Radioprotective activity in C57BL/6J mouse assessed as survival rate at 100 mg/kg, sc preincubated with compound for 24 hrs followed by total body irradiation with 8.5 Gy and measured after 30 days by Kaplan-meier plot analysis; type: functional; settings: time 31 day; for survival at 100 mg/kg: Mus musculus, C57BL/6J, light or radiation study, 744 h
[4] = tested on: Mus musculus; assay: Radioprotective activity in C57BL/6J mouse assessed as survival rate at 100 mg/kg, sc preincubated with compound for 24 hrs followed by total body irradiation with 8.5 Gy and measured after 20 days by Kaplan-meier plot analysis; type: functional; settings: light or radiation study, 504 h, time 21 day
[5] = tested on: Mus musculus; assay: Induction of G-CSF production in C57BL/6J mouse model at 100 mg/kg, ip measured for 24 hrs by ELISA analysis; type: functional, organism-based
[6] = Stability in […] human plasma assessed as half-life; type: ADME, cell-free
[7] = Stability in C57BL/6J mouse plasma assessed as half-life; type: ADME, cell-free

Structure (SMILES) | Activity [1] | also measured
CC(C)=CCC/C(C)=C/CC/C(C)=C/CC[C@]1(C)CCc2cc(OCC(=O)O)cc(C)c2O1 | Active | 
COC(=O)CCC(=O)Oc1cc(C)c2c(c1)CC[C@@](C)(CC/C=C(\C)CC/C=C(\C)CCC=C(C)C)O2 |  | half-life [2]: 30.3 min
CC(C)=CCC/C(C)=C/CC/C(C)=C/CC[C@]1(C)CCc2cc(OCC(C)(C)CO)cc(C)c2O1 | Active | 
CC(C)=CCC/C(C)=C/CC/C(C)=C/CC[C@]1(C)CCc2cc(OC(=O)c3ccncc3)cc(C)c2O1 | Active | 
CC(C)=CCC/C(C)=C/CC/C(C)=C/CC[C@]1(C)CCc2c(C)c(O)cc(C)c2O1 | Active | 
CC(C)=CCC/C(C)=C/CC/C(C)=C/CC[C@]1(C)CCc2cc(O)c(C)c(C)c2O1 | Active | 
CC(C)=CCC/C(C)=C/CC/C(C)=C/CC[C@]1(C)CCc2cc(OC(=O)C3CCNCC3)cc(C)c2O1 | Active | survival at 100 mg/kg [3]: 70%; survival at 100 mg/kg [4]: 70%
CC(C)=CCC/C(C)=C/CC/C(C)=C/CC[C@]1(C)CCc2cc(OCCCCC(=O)O)cc(C)c2O1 | Active | 
Cc1c(O)cc2c(c1C)O[C@](C)(CCCC(C)CCCC(C)CCCC(C)C)CC2 (some centres undefined) |  | Activity [5]: inactive
CC(C)=CCC/C(C)=C/CC/C(C)=C/CC[C@]1(C)CCc2cc(OCCCO)cc(C)c2O1 | Active | Activity [3]: 80%; survival at 100 mg/kg [4]: 70%
CCN(CC)CCOC(=O)c1ccc(N)cc1 [PROCAINE] |  | half-life [6]: 0.7 min; half-life [7]: 13.2 min; half-life [2]: 12.3 min
Cc1cc(O)c(C)c2c1O[C@](C)(CCCC(C)CCCC(C)CCCC(C)C)CC2 (some centres undefined) |  | Activity [5]: inactive
CC(C)=CCC/C(C)=C/CC/C(C)=C/CC[C@]1(C)CCc2cc(OCCN)cc(C)c2O1 | Active | 
CC(C)=CCC/C(C)=C/CC/C(C)=C/CC[C@]1(C)CCc2cc(OC(=O)C3CCN(C)CC3)cc(C)c2O1 | Active | 
CC(C)=CCC/C(C)=C/CC/C(C)=C/CC[C@]1(C)CCc2cc(OC(=O)CCCC(=O)O)cc(C)c2O1 | Active | survival at 100 mg/kg [4]: 70%; half-life [2]: 5.5 min
CC(C)=CCC/C(C)=C/CC/C(C)=C/CC[C@]1(C)CCc2cc(OC(=O)Cc3cccnc3)cc(C)c2O1 | Active | 
CC(C)=CCC/C(C)=C/CC/C(C)=C/CC[C@]1(C)CCc2cc(OCCN(C)C)cc(C)c2O1 | Active | 
CC(C)=CCC/C(C)=C/CC/C(C)=C/CC[C@]1(C)CCc2cc(OC(=O)/C=C/C(=O)O)cc(C)c2O1 | Active | survival at 100 mg/kg [3]: 90%; survival at 100 mg/kg [4]: 70%; half-life [2]: 24.1 min

Structure (SMILES) | Activity [1] | also measured
CC(C)=CCC/C(C)=C/CC/C(C)=C/CC[C@]1(C)CCc2cc(OC(=O)c3ccccn3)cc(C)c2O1 | Active | 
CC(=O)Oc1cc(C)c2c(c1)CC[C@@](C)(CC/C=C(\C)CC/C=C(\C)CCC=C(C)C)O2 | Active | 
CC(C)=CCC/C(C)=C/CC/C(C)=C/CC[C@]1(C)CCc2cc(OC(=O)CCCCC(=O)O)cc(C)c2O1 | Active | survival at 100 mg/kg [4]: 70%; half-life [2]: 2.1 min
CC(C)=CCC/C(C)=C/CC/C(C)=C/CC[C@]1(C)CCc2cc(OCCCCO)cc(C)c2O1 | Active | 
CC(C)=CCC/C(C)=C/CC/C(C)=C/CC[C@]1(C)CCc2cc(OCCCCCO)cc(C)c2O1 | Active | 
Cc1c(C)c2c(c(C)c1O)CC[C@@](C)(CCCC(C)CCCC(C)CCCC(C)C)O2 (some centres undefined) |  | Activity [5]: inactive
CC(C)=CCC/C(C)=C/CC/C(C)=C/CC[C@]1(C)CCc2c(C)c(O)c(C)c(C)c2O1 |  | Activity [5]: inactive
CC(C)=CCC/C(C)=C/CC/C(C)=C/CC[C@]1(C)CCc2cc(OC(=O)c3cccnc3)cc(C)c2O1 | Active | 
CC(C)=CCC/C(C)=C/CC/C(C)=C/CC[C@]1(C)CCc2cc(OCCC(=O)O)cc(C)c2O1 | Active | 
CC(C)=CCC/C(C)=C/CC/C(C)=C/CC[C@]1(C)CCc2cc(OCCCC(=O)O)cc(C)c2O1 | Active | 
Cc1cc(O)cc2c1O[C@](C)(CCCC(C)CCCC(C)CCCC(C)C)CC2 (some centres undefined) |  | Activity [5]: inactive
CC(C)=CCC/C(C)=C/CC/C(C)=C/CC[C@]1(C)CCc2cc(OCC(C)(C)C(=O)O)cc(C)c2O1 | Active | 
CC(C)=CCC/C(C)=C/CC/C(C)=C/CC[C@]1(C)CCc2cc(OC(=O)CC(C)(C)C(=O)O)cc(C)c2O1 | Active | survival at 100 mg/kg [4]: 70%
CC(C)=CCC/C(C)=C/CC/C(C)=C/CC[C@]1(C)CCc2cc(OC(=O)CN(C)C)cc(C)c2O1 | Active | survival at 100 mg/kg [4]: 70%
CC(C)=CCC/C(C)=C/CC/C(C)=C/CC[C@]1(C)CCc2cc(OC(=O)CCC(N)=O)cc(C)c2O1 | Active | 
CNCCOc1cc(C)c2c(c1)CC[C@@](C)(CC/C=C(\C)CC/C=C(\C)CCC=C(C)C)O2 | Active | 
CCCC(CCC)C(=O)Oc1cc(C)c2c(c1)CC[C@@](C)(CC/C=C(\C)CC/C=C(\C)CCC=C(C)C)O2 | Active | 
CC(C)=CCC/C(C)=C/CC/C(C)=C/CC[C@]1(C)CCc2cc(OC(=O)CCCCCC(=O)O)cc(C)c2O1 | Active | survival at 100 mg/kg [3]: 90%; survival at 100 mg/kg [4]: 70%; half-life [2]: 8.6 min
